Measurements as given in patent publication US7008931B2, “Anti-inflammatory and healing medicine based on laminarin sulphate” (Laboratoires GOEMAR S.A., priority 2000, dated 2006).

How the values were obtained:
[1] = system: edema of the ear of the mouse induced with croton oil; assay: edema of the ear of the mouse induced with croton oil; type: in vivo; settings: for equipotent amount per ear for inhibition of inflammation: topical, with 70 μg croton oil, 4 hours
Procedure: The topic activity which inhibits inflammation and which is presented by laminarin sulphate, has been tested in the model constituted by the edema of the ear of the mouse induced with croton oil. The control was indomethacin. The tested animals were male mice of the type Swiss CD-1 whose weight was 20 to 25 g. Three groups of tests were carried out on three groups of animals. The first group is a negative control group wherein only the pro-inflammatory agent consisting of croton oil was used. The second group is a positive control group and comprises the use of croton oil and of indomethacin (200 nMol/ear which corresponds to 71.56 μg/ear). The third group relates to the use of laminarin sulphate and comprises the use of 70 μg of croton oil and of increasing amounts of laminarin sulphate (100, 250, 500, 750 and 1000 μg/ear).
In the case of the control groups, of the group of reference and of the group comprising the use of the different concentrations of laminarin sulphate, 10 mice were used each time. […] On each ear (surface of about 1 cm^2) 70 μg of croton oil were applied at the same time as indomethacin or laminarin sulphate or dexamethasone. Four hours later, samples having a diameter of 7 mm were cut up and weighed.
For the statistical exploitation an analysis of the variance (ANOVA) as well as the Scheffe test were carried out.

[2] = system: complement system (obtained from human serum), classical route; assay: inhibition of the activation of the complement by the classical route (hemolysis of sheep antibody-sensitized erythrocytes); type: biochemical
From the text: (§1) Test 1: Measuring of the Anti-Complementary Activity
(§2) The complement system plays a key role in the inflammatory processes induced by infections. The substances which inhibit in vitro the activation of the complement are potentially in vivo anti-inflammatory products.
(§3) The activation of the complement can be carried out by the classical route in which the system antigen-antibody plays a role, or by the so-called alternative route. The anti-complementary activity of laminarin sulphate has been examined in vitro in comparison to that of the above heparin of low molecular weight used as reference (HBPM).
(§4) The evaluation of the anti-complementary reactivity is carried out by photometric or colorimetric measurement of the hemoglobin freed by lysis of the erythrocytes. The erythrocytes used are sheep antibody-sensitized erythrocytes for the classical route and rabbit erythrocytes for the altern route.
(§5) In a first step, the product to be tested and the complement system (obtained from human serum) are put into contact with one another and if necessary incubated during 30 minutes and then, in a second step, they are put into contact with the erythrocytes during 45 minutes.
(§6) The more the test product inhibits the complement, the more the lysis of the erythrocytes is weak and the less the amount of freed hemoglobin is important.
(§7) The anti-complementary activity is expressed in IC (50) (IC meaning “inhibiting concentration”) which designates the concentration expressed in […] of test substance per ml of mixture of the test substance and the serum (μg/ml), concentration which is necessary to inhibit by 50% the activity of the complement.

[3] = system: complement system (obtained from human serum), alternative route; assay: inhibition of the activation of the complement by the alternative route (hemolysis of rabbit erythrocytes); type: biochemical; settings: for IC (50), inhibition of the complement by the alternative route: laminarin sulphate without incubation
From the text: as §1, §2, §3, §4, §5, §6, §7

[4] = system: polymorphnuclear neutrophiles (PMN); assay: chemotaxy of granulocytes, Boyden Chamber test with C5a (human serum activated with Zymosan); type: cell-based
From the text: Test 2: Examination of the Influence on the Chemiotaxy of the Granulocytes
The polymorphnuclear neutrophiles or PMN are cells which are characteristic of the infiltrate of the acute inflammation. The movement or the migration of neutrophiles from inside of the blood vessels in direction of the tissues is provoked by molecules which are called chemotaxins. Two chemotaxins are particularly important in the case of the polynuclear neutrophiles, i.e. the fragment C5a of the complement and the interleukin 8 (IL-8). The movement of the neutrophiles can be aleatory (which means that a so called chemokinesis occurs) or can be oriented along the length of a gradient of chemotaxins.
Consequently, the ability of laminarin sulphate to inhibit the chemotaxy of […] was examined; this study has been carried out in vitro by way of the test called Test of the Boyden Chamber (a variant of the Boyden Chamber having 96 holes was used) the fragment C5a in the form of human serum activated with Zymosan having been used as chemiotaxin. As shown on FIG. 2, the Boyden Chamber comprises 2 compartments respectively 1 and 2 which are separated by a membrane 3 consisting of polycarbonate (dimension of the pores 3 μm). The pores of the said membrane authorize the active passing of the cells but not their passive diffusion.
The polymorphnuclear neutrophiles PMN are placed in the higher compartment 2 together with the substance to be tested at various doses. The C5a is placed in the lower compartment.
The measurement of the inhibition of the chemotaxy is carried out by numbering the cells which have been attracted in the lower compartment. For the numbering of the cells, they are lysed with Triton X, and the free peroxidase is then quantified by adding 2,2-azino-di-[3-ethylbenzo-thiazoline] sulfonate or ABTS marketed by Boehringer Mannheim and by measuring at 405 nm the extinction of the colored product which has been formed.

[5] = target: T1, P-selectin (Homo sapiens, UniProt P16109); assay: cellular adhesion on immobilized P-selectin under static conditions (U 937 cells); type: cell-based
T1 sequence (P16109 42-830): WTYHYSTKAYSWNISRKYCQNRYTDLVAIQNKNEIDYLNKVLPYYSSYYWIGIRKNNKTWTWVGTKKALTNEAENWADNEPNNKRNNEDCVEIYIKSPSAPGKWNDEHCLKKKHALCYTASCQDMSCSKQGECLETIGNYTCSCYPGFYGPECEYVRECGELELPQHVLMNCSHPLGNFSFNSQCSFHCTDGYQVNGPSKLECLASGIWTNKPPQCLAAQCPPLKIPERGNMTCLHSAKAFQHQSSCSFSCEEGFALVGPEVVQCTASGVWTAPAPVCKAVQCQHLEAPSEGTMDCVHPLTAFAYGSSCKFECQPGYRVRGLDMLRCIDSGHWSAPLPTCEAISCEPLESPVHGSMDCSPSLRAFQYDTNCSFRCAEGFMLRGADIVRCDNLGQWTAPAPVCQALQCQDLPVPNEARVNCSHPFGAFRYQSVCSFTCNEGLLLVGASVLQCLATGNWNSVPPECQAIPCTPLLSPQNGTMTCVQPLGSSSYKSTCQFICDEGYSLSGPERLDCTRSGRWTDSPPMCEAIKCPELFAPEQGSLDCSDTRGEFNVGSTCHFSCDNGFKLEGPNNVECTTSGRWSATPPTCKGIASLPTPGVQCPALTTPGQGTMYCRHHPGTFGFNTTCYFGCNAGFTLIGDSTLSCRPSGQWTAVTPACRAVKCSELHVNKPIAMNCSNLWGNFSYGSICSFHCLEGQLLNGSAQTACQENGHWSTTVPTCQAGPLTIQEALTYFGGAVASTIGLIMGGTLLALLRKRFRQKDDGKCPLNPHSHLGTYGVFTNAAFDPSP
From the text: (§8) Test 3: Influence on the Adhesion of the Cells Induced by Selectin
(§9) Consequently, the effect of laminarin sulphate has been examined through the direct quantification of the cells bond to the selectins immobilized on microplates.
(§10) The influence of the laminarin sulphate on the adhesion of the cells due to the selectins has been studied first under static conditions as schematically shown on FIG. 3a (E-selectins or P-selectins) and 3b (L-selectins). The selectin has been deposited on a microtitration plate; in that respect and in the case of L-selectin the human chimera Fc of L-selectin has been used. Then, the plate was incubated with the test substance and with cells carrying the ligands of the corresponding selecting, that is to say in the case of L-selectin the human cellular line LS 180 of the adenocarcinoma of the colon and in the case of the selectins P and E the human lymphomic cellular line U 937.
(§11) The number of cells bond to the microtitration plate after washing and subsequent lysis of these cells was determined and their lactate dehydrogenase content was determined by way of an enzymatic reaction.

[6] = system: human chimera Fc of L-selectin; assay: cellular adhesion on immobilized L-selectin under static conditions (LS 180 cells); type: cell-based
human chimera Fc of L-selectin, sequence (P14151 39-318 limits assumed, change not shown): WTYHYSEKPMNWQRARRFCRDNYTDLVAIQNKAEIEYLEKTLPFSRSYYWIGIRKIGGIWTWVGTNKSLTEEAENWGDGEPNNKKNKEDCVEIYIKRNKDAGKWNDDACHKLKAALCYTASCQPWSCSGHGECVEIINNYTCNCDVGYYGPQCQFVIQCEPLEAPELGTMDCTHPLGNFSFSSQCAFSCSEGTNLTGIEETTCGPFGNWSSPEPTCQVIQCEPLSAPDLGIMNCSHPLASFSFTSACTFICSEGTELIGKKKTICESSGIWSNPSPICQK
From the text: as §8, §9, §10, §11

[7] = system: intrinsic system of the coagulation; assay: coagulation test APTT; type: biochemical
From the text: (§12) The anti-coagulant activity which depends from the concentration of laminarin sulphate has been determined in comparison with that of heparin in the classical coagulation tests APTT or “Aktivierte partielle Thromboplastin-Zeit”, of the duration of the prothrombin, by way of the test so called “HEPTEST” and the duration of the thrombin. The APTT reflects an interaction with the intrinsic system of the coagulation while the duration of prothrombin reflects an interaction with the extrinsic coagulation; the so called “HEPTEST” is a classical test for the measurement of the inhibiting activity of heparin with respect to the Xa factor and the duration of thrombin corresponds to the last step of the coagulation, i.e. the formation of fibrins induced by the thrombin. In contradiction with that of heparin, the activity of laminarin sulphate in the so called “HEPTEST” is more than 20 times weaker. […] The specific activity (IU/mg) in the APTT represents 30% of the activity of heparin and in the case of the duration of thrombin it represents 60%. In order to totally prevent the coagulation it is convenient to use in the case of APTT a concentration 4 times higher and in the case of the duration of thrombin a concentration 20 times higher.

[8] = system: Xa factor; assay: HEPTEST coagulation test; type: biochemical; settings: relative to heparin
From the text: as §12

[9] = system: extrinsic coagulation; assay: duration of the prothrombin coagulation test; type: biochemical
From the text: as §12

[10] = system: thrombin; assay: duration of the thrombin coagulation test; type: biochemical
From the text: as §12

[11] = system: factor Xa; assay: specific anti-factor Xa test using chromogeneous substrates; type: biochemical
From the text: (§13) The effect in the case of the duration of thrombin can be considered as being due to an inhibition of thrombin dependent from the cofactor II heparin. […] For that reason and due to the better effect in the systems of anti-inflammatory tests, the profile “utility/risk” moves in the case of laminarin sulphate unequivocally in the sense of an anti-inflammatory effect. It follows that the anti-inflammatory properties of laminarin sulphate can be advantageously used without the apprehension of undesirable side effects on coagulation.

[12] = system: thrombin; assay: specific anti-thrombin test using chromogeneous substrates; type: biochemical
From the text: as §13

[13] = system: MDA-MB-231, MCF, U937, LS180 cellular lines; assay: cytotoxicity tests (5 days proliferation with crystal violet or MTT, acute LDH kit); type: cell-based, human; settings: highest tested concentration, 100 μg/ml
Procedure: In order to test cytoxicity, the following cellular lines were used: MDA-MB-231 (human mammary carcinoma); MCF (human mammary carcinoma); U937—(human lymphoma); and, LS180 (human adenocarcinoma).
The test used is a 5 days proliferation test and the determination of the number of living cells was carried out by coloration with crystallin violet or crystallin purple. A 5 day proliferation test with determination of the number of living cells using the test MTT has also been carried out. Finally the acute cytotoxicity has been determined using a kit marketed by the company Boehringer Mannheim under the title “Cytotoxicity detection kit” (LDH).

## COc1ccc2c(c1)c(CC(=O)O)c(C)n2C(=O)c1ccc(Cl)cc1 [indomethacin, reference compound]
[1]
  equipotent amount per ear for inhibition of inflammation: 72 μg per ear

## heparin [reference compound]
[2]
  IC (50), inhibition of the activation of the complement by the classical way: 43.7 ± 1.9 µg/mL
[3]
  IC (50), inhibition of the complement by the alternative route: 464 µg/mL
[4]; 1.67 μg/ml
  inhibition of the cellular migration: not inhibited
[4]; 4.2 μg/ml
  inhibition of the cellular migration: 10%±5%
[5]; 5 μg/ml
  Inhibition expressed in % of the cellular adhesion on P-selectin: 12 ± 5%
[5]; 25 μg/ml
  Inhibition expressed in % of the cellular adhesion on P-selectin: 30 ± 4%
[6]; 5 μg/ml
  Inhibition expressed in % of the cellular adhesion on L-selectin: 15 ± 5%
[6]; 25 μg/ml
  Inhibition expressed in % of the cellular adhesion on L-selectin: 32 ± 3%

## laminarin sulphate
[2]
  IC (50), inhibition of the activation of the complement by the classical way: 0.54 ± 0.06 µg/mL
  times more active on the inhibition of the complement than heparin: 80 times
[3]
  times more active on the inhibition of the complement than heparin: 10 times
  IC (50), inhibition of the complement by the alternative route: 43 µg/mL
[3]; dose of 2.4 μg/ml
  prolongation of the activity of the complement: 50%
[3]; laminarin sulphate at low concentrations
  prolongation of the activity of the complement: more than 100%
[4]; 1.67 μg/ml
  inhibition of the cellular migration: 50%±6%
[5]; 5 μg/ml
  Inhibition expressed in % of the cellular adhesion on P-selectin: 50 ± 2%
[5]; 25 μg/ml
  Inhibition expressed in % of the cellular adhesion on P-selectin: 63 ± 3%
[6]; 5 μg/ml
  Inhibition expressed in % of the cellular adhesion on L-selectin: 33 ± 1%
[6]; 25 μg/ml
  Inhibition expressed in % of the cellular adhesion on L-selectin: 89 ± 10%
[7]; APTT
  concentration to totally prevent the coagulation, times higher than heparin: 4 times
[7]; relative to heparin
  specific activity (IU/mg) in the APTT as % of the activity of heparin: 30%
[8]
  activity in the HEPTEST, times weaker than heparin: more than 20 times
[9]
  anti-coagulant effect on the duration of prothrombin: no pronounced anti-coagulant effect
[10]; duration of thrombin
  concentration to totally prevent the coagulation, times higher than heparin: 20 times
[10]; relative to heparin
  specific activity (IU/mg) in the duration of thrombin as % of the activity of heparin: 60%
[11]
  anti-factor Xa activity dependent from anti-thrombin: does not present a significant anti-factor Xa activity
[12]
  anti-thrombin activity: nor an anti-thrombin activity
[1]; 25 nMol laminarin sulphate vs 200 nMol indomethacin
  times more active than indomethacin from the molar point of view: nine
[1]; control experiment, applied after croton oil
  inhibiting activity when applied after croton oil instead of simultaneously: no difference
[1]; equimolar concentration of 0.12 mmol/ear
  efficiency compared with dexamethasone: more efficient than dexamethasone
[1]
  equipotent amount per ear for inhibition of inflammation: 250 μg per ear
[13]
  cytotoxic effect: no cytotoxic effect was noticed
